Reference: patent US8084484B2, “Vanilloid receptor ligands, pharmaceutical compositions containing them, process for making them, and use thereof for treating pain and other conditions” (Gruenenthal GmbH, priority 2007, dated 2011)

How the values were obtained:
[1] = target: T1, vanilloid receptor (VR1), human VR1 gene (Homo sapiens, UniProt Q8NER1); assay: FLIPR Ca2+ influx assay on CHO K1 cells transfected with the VR1 gene, capsaicin stimulus (Pharmacological method II); assay type: cell-based; settings: for Ki / Ki (human) Capsaicin: human, Ki by Cheng-Prusoff, ne = no effect, no response observed; for inhibition at 5 µM: CHO-K1, compound 5 μM, read-out: Capsaicin: inhibition (in percent) @ 5 μM; for inhibition at 5 µM / inhibition at 0.1 µM: species column unclear (taken as human); for inhibition at 0.1 µM: CHO-K1, compound 0.1 μM, read-out: Capsaicin: inhibition (in percent) @ 0.1 μM
T1 construct: expressed in transfected cells; host or cells: CHO K1 cells (ECACC), stably transfected
Protocol: In addition, compounds according to the invention of the general formulae I, Ia, Ib, Ic, and Id, may be preferred which in the FLIPR assay with CHO K1 cells, which have been transfected with the human VR1 gene, in a concentration of less than 2000 nM, preferably of less than 1000 nM, particularly preferably of less than 300 nM, very particularly preferably of less than 100 nM, still more preferably of less than 75 nM, further preferably of less than 50 nM and most preferably of less than 10 nM, bring about a 50 percent displacement of capsaicin, which is present in a concentration of 100 nM. In this FLIPR assay, the influx of Ca^2+ is quantified with the assistance of a Ca^2+-sensitive dye (type Fluo-4, Molecular Probes Europe BV, Leiden, Netherlands) in a Fluorescent Imaging Plate Reader (FLIPR, Molecular Devices, Sunnyvale, USA) as described below.
II. Functional Investigations on Vanilloid Receptor (VR1)
The agonistic or antagonistic action of the substances to be investigated on the vanilloid receptor (VR1) may also be determined with the following assay. According to this assay, the influx of Ca^2+ through the channel is quantified with the assistance of a Ca^2+-sensitive dye (type Fluo-4, Molecular Probes Europe BV, Leiden, Netherlands) in a Fluorescent Imaging Plate Reader (FLIPR, Molecular Devices, Sunnyvale, USA).
Chinese hamster ovary cells (CHO K1 cells, European Collection of Cell Cultures (ECACC), Great Britain) are stably transfected with the VR1 gene. For functional investigations, these cells are plated out onto poly-D-lysine-coated, black 96-hole plates with a clear base (BD Biosciences, Heidelberg, Germany) at a density of 25,000 cells/hole. The cells are incubated overnight at 37° C. and 5% CO2 in a culture medium (Ham's Nutrient Mixture F12, 10 vol. % FCS (foetal calf serum), 18 μg/mL L-proline). On the following day, the cells are incubated with Fluo-4 (Fluo-4 2 μM, Pluronic F127 0.01 vol. %, Molecular Probes in HBSS (Hank's buffered saline solution), Gibco Invitrogen GmbH, Karlsruhe, Germany) for 30 minutes at 37° C. The plates are then washed 3 times with HBSS buffer and, after a further 15 minutes' incubation at room temperature, used for Ca^2+ measurement in the FLIPR. Ca^2+-dependent fluorescence is here measured before and after the addition of the substances to be investigated (wavelength λex=488 nm, λem=540 nm).
Quantification proceeds by measuring the highest fluorescence intensity (FC, fluorescence counts) over time.
The FLIPR protocol consists of 2 additions of substance. The substances to be tested (10 μM) are firstly pipetted onto the cells and Ca^2+ influx is compared with the control (capsaicin 10 μM) (% activation relative to the Ca^2+ signal after addition of 10 μM of capsaicin). After 5 minutes' incubation, 100 nM of capsaicin are added and the influx of Ca^2+ is likewise determined.
The percentage inhibition in comparison with the maximum achievable inhibition with 10 μM capsaicin is calculated.
On the basis of the percentage displacement by different concentrations of the compounds to be tested of the general formula I, IC50 inhibition concentrations which bring about 50% displacement of capsaicin were calculated. Ki values for the test substances were obtained by conversion using the Cheng-Prusoff equation (Cheng, Prusoff; Biochem. Pharmacol. 22, 3099-3108, 1973).

VR1/TRPV1 receptor = VR1/TRPV1 receptor (Homo sapiens, UniProt Q8NER1); assay: Inhibition of human VR1/TRPV1 following pH-stimulus; assay type: cell-based; settings: for IC50 (Human) following pH-stimulus: ne = no effect, no response observed; for inhibition at 1 µM: compound 1 μM, read-out: IC50 (Human) following pH-stimulus: inhibition (in percent) @ 1 μM; for inhibition at 5 µM: read-out: IC50 (Human) following pH-stimulus: inhibition (in percent) @ 5 μM; for inhibition at 10 µM: compound 10 μM, read-out: IC50 (Human) following pH-stimulus: inhibition (in percent) @ 10 μM
VR1/TRPV1 receptor, sequence (Q8NER1 whole entry): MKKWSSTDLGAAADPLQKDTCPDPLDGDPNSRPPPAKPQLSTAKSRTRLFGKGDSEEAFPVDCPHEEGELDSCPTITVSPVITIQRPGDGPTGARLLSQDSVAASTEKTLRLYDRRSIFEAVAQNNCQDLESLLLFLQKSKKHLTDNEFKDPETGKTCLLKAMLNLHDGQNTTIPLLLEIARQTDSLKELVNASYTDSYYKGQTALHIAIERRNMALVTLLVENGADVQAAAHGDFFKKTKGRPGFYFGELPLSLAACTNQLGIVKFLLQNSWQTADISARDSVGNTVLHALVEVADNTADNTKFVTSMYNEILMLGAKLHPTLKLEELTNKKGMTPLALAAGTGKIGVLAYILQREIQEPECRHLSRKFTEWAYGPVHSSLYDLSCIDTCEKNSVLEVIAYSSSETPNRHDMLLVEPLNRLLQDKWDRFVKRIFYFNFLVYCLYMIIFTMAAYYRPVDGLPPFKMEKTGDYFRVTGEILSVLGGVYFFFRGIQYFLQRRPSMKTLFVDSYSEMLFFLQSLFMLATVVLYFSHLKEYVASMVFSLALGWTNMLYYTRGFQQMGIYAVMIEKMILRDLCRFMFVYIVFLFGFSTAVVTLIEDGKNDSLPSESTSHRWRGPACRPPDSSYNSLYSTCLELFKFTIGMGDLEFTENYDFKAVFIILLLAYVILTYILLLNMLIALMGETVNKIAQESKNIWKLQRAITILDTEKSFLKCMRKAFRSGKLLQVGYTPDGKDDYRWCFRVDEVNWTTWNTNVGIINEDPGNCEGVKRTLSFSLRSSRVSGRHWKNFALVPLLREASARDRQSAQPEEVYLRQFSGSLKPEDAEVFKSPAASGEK

T1 sequence (Q8NER1 whole entry): as above

CC(C(=O)NCc1ccc(C(C)(C)C)cc1)c1ccc2ocnc2c1 (stereo not shown) [Example 1, 2-benzooxazol-5-yl-N-(4-tert.-butyl-benzyl)-propionamide]
Ki [1]: 579 nM | IC50 (Human) following pH-stimulus (VR1/TRPV1 receptor): Ne

COc1cc(C(C)C(=O)NCc2ccc(C(C)(C)C)cc2)cc2ncoc12 (stereo not shown) [Example 7, N-(4-tert.-butyl-benzyl)-2-(7-methoxy-benzooxazolyl-5-yl)-propionamide]
Ki [1]: 2170 nM | IC50 (Human) following pH-stimulus (VR1/TRPV1 receptor): Ne

CC(C(=O)NCc1ccc(C(C)(C)C)cc1)c1ccc2c(c1)OCCO2 (stereo not shown) [Example 9, N-(4-tert.-butyl-benzyl)-2-(2,3-dihydro-benzo[1,4]dioxin-6-yl)-propionamide]
Ki [1]: 1080 nM | IC50 (Human) following pH-stimulus (VR1/TRPV1 receptor): Ne

CC(C(=O)NCc1ccc(C(C)(C)C)cc1)c1ccc2nccnc2c1 (stereo not shown) [Example 11, N-(4-tert.-butyl-benzyl)-2-quinoxalin-6-yl-propionamide]
Ki (human) Capsaicin [1]: ne

CC(C(=O)NCc1ccc(C(C)(C)C)cc1)c1ccc2[nH]cnc2c1 (stereo not shown) [Example 14, 2-(1H-benzoimidazol-5-yl)-N-(4-tert.-butyl-benzyl)-propionamide]
Ki (human) Capsaicin [1]: ne

CC(C(=O)NCc1ccc(C(C)(C)C)cc1)c1ccc2c(c1)OCCN2 (stereo not shown) [Example 20, N-(4-tert.-butylbenzyl)-2-(3,4-dihydro-2H-benzo[b][1,4]oxazin-7-yl)propionamide]
inhibition at 5 µM [1]: 9% | IC50 (Human) following pH-stimulus (VR1/TRPV1 receptor): Ne

CSc1nc2ccc(C(C)C(=O)NCc3ccc(C(C)(C)C)nc3N3CCC(C)CC3)cc2s1 (stereo not shown) [Example 34, N-(6′-tert.-butyl-4-methyl-3,4,5,6-tetrahydro-2H-[1,2′]bipyridinyl-3′-ylmethyl)-2-(2-methylsulfanyl-benzothiazol-6-yl)-propionamide]
inhibition at 5 µM [1]: 38% | IC50 (Human) following pH-stimulus (VR1/TRPV1 receptor): Ne

CC1CCN(c2nc(C(F)(F)F)ccc2CNC(=O)C(C)c2ccc3nc(N)sc3c2)CC1 (stereo not shown) [Example 38, 2-(2-aminobenzo[d]thiazol-6-yl)-N-((2-(4-methylpiperidin-1-yl)-6-(trifluoromethyl)pyridin-3-yl)methyl)propanamide]
Ki [1]: 28.4 nM | IC50 (Human) following pH-stimulus (VR1/TRPV1 receptor): Ne

CC1CCN(c2nc(C(F)(F)F)ccc2CNC(=O)C(C)c2ccc3nc(NS(C)(=O)=O)sc3c2)CC1 (stereo not shown) [Example 39, N-((2-(4-methylpiperidin-1-yl)-6-(trifluoromethyl)pyridin-3-yl)methyl)-2-(2-(methylsulfonamido)benzo[d]thiazol-6-yl)propanamide]
inhibition at 0.1 µM [1]: 0% | IC50 (Human) following pH-stimulus (VR1/TRPV1 receptor): Ne

CC1CCN(c2nc(C(F)(F)F)ccc2CNC(=O)C(C)c2ccc3nc(NC(=O)OC(C)(C)C)sc3c2)CC1 (stereo not shown) [Example 40, tert.-butyl 6-(1-((2-(4-methylpiperidin-1-yl)-6-(trifluoromethyl)pyridin-3-yl)methylamino)-1-oxopropan-2-yl)benzo[d]thiazol-2-ylcarbamate]
inhibition at 0.1 µM [1]: 0% | inhibition at 5 µM [1]: 34% | inhibition at 1 µM (VR1/TRPV1 receptor): 0% | inhibition at 5 µM (VR1/TRPV1 receptor; compound 5 μM): 21% | inhibition at 10 µM (VR1/TRPV1 receptor): 37%

CC(=O)Nc1nc2ccc(C(C)C(=O)NCc3ccc(C(F)(F)F)nc3N3CCC(C)CC3)cc2s1 (stereo not shown) [Example 41, 2-(2-acetamidobenzo[d]thiazol-6-yl)-N-((2-(4-methylpiperidin-1-yl)-6-(trifluoromethyl)pyridin-3-yl)methyl)propanamide]
inhibition at 0.1 µM [1]: 5% | IC50 (Human) following pH-stimulus (VR1/TRPV1 receptor): Ne

CC(C(=O)NCc1ccc(C(C)(C)C)cc1)c1ccc2nc(NC(=O)OC(C)(C)C)sc2c1 (stereo not shown) [Example 50, tert.-butyl 6-(1-(4-tert.-butylbenzylamino)-1-oxopropan-2-yl)benzo[d]thiazol-2-ylcarbamate]
inhibition at 0.1 µM [1]: 0% | inhibition at 5 µM [1]: 10% | inhibition at 1 µM (VR1/TRPV1 receptor): 10% | inhibition at 5 µM (VR1/TRPV1 receptor; compound 5 μM): 25% | inhibition at 10 µM (VR1/TRPV1 receptor): 53%

CC(C(=O)NCc1ccc(C(C)(C)C)cc1)c1ccc2nc(N)sc2c1 (stereo not shown) [Example 51, 2-(2-aminobenzo[d]thiazol-6-yl)-N-(4-tert.-butylbenzyl)propanamide]
inhibition at 0.1 µM [1]: 3% | inhibition at 0.1 µM (VR1/TRPV1 receptor; compound 0.1 μM, read-out: IC50 (Human) following pH-stimulus: inhibition (in percent) @ 0.1 μM): 10% | IC50 (Human) following pH-stimulus: inhibition (in percent) @ 5 μM (VR1/TRPV1 receptor; compound 5 μM, 5 µM): 27% @ 5 | inhibition at 5 µM (VR1/TRPV1 receptor; compound 5 μM): 39%

CC1CCN(c2nc(C(F)(F)F)ccc2CNC(=O)C(C)c2ccc3nc(N)sc3c2)CC1 (stereo not shown) [Example 52, 2-(2-aminobenzo[d]thiazol-6-yl)-N-((2-(4-methylpiperidin-1-yl)-6-(trifluoromethyl)pyridin-3-yl)methyl)propanamide]
inhibition at 0.1 µM [1]: 5% | IC50 (Human) following pH-stimulus (VR1/TRPV1 receptor): Ne

CC1CCN(c2nc(C(C)(C)C)ccc2CNC(=O)C(C)c2ccc3nc(NC(=O)OC(C)(C)C)sc3c2)CC1 (stereo not shown) [Example 55, tert-butyl 6-(1-((6-tert-butyl-2-(4-methylpiperidin-1-yl)pyridin-3-yl)methylamino)-1-oxopropan-2-yl)benzo[d]thiazol-2-ylcarbamate]
inhibition at 5 µM [1]: 12% | inhibition at 1 µM (VR1/TRPV1 receptor): 5% | inhibition at 5 µM (VR1/TRPV1 receptor; compound 5 μM): 27%

CC1CCN(c2nc(C(C)(C)C)ccc2CNC(=O)C(C)c2ccc3nc(N)sc3c2)CC1 (stereo not shown) [Example 56, 2-(2-aminobenzo[d]thiazol-6-yl)-N-((6-tert-butyl-2-(4-methylpiperidin-1-yl)pyridin-3-yl)methyl)propanamide]
Ki [1]: 18.7 nM | inhibition at 5 µM (VR1/TRPV1 receptor; compound 5 μM): 2% | inhibition at 10 µM (VR1/TRPV1 receptor): 12%

CC(C(=O)NCc1ccc(C(C)(C)C)cc1)c1ccc2nc(NS(C)(=O)=O)sc2c1 (stereo not shown) [Example 57, N-(4-tert-butylbenzyl)-2-(2-(methylsulfonamid)benzo[d]thiazol-6-yl)propanamide]
Ki [1]: 32.8 nM | inhibition at 5 µM (VR1/TRPV1 receptor; compound 5 μM): 3% | inhibition at 10 µM (VR1/TRPV1 receptor): 32%
